ChEMBL document CHEMBL1201862, “PubChem BioAssay data set” (2004)
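Growth conditions: 96-well plates. Treatment: test compound, 48 hours, 5 concentrations. Analysis: linear interpolation between bracketing concentrations; unreached endpoints set to highest concentration. The concentration for 50% growth inhibition is given as GI50.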 The source made the active and inactive calls. No stated cut-off is given here; in the data, active = GI50 up to about 1.1 µM and inactive = higher.

How the values were obtained:
Assay in all cases: NCI-60 cell line screen, 48 h
K562 = test system: K562
A498 = test system: A498
U-251 = test system: U-251
CCRF-CEM = test system: CCRF-CEM
M14 = test system: M14
A549 = test system: A549
MOLT-4 = test system: MOLT-4
NCI-H226 = test system: NCI-H226
SNB-75 = test system: SNB-75
LOX IMVI = test system: LOX IMVI
SW-620 = test system: SW-620
TK-10 = test system: TK-10
SK-OV-3 = test system: SK-OV-3
NCI-H460 = test system: NCI-H460
EKVX = test system: EKVX
OVCAR-8 = test system: OVCAR-8
CAKI-1 = test system: CAKI-1
ACHN = test system: ACHN

Measured: GI50

O=C(O)C12C3C4C1C1C2C3C41I (stereo unspecified)
inactive: K562 > 100 µM | A498 > 100 µM | U-251 > 100 µM | CCRF-CEM > 100 µM | M14 > 100 µM | A549 > 100 µM | MOLT-4 > 100 µM | NCI-H226 > 100 µM | SNB-75 70.6 µM | LOX IMVI > 100 µM | SW-620 > 100 µM | TK-10 > 100 µM | SK-OV-3 > 100 µM | NCI-H460 > 100 µM | EKVX > 100 µM | OVCAR-8 > 100 µM | CAKI-1 > 100 µM | ACHN > 100 µM

CC(=O)NC(CCCNC(=O)OCc1ccccc1)C(=O)NCc1ccccc1 (stereo unspecified)
inactive: K562 > 100 µM | A498 > 100 µM | U-251 > 100 µM | CCRF-CEM > 100 µM | M14 > 100 µM | A549 > 100 µM | MOLT-4 > 100 µM | NCI-H226 > 100 µM | SNB-75 41.8 µM | LOX IMVI > 100 µM | SW-620 > 100 µM | TK-10 > 100 µM | SK-OV-3 > 100 µM | NCI-H460 > 100 µM | EKVX > 100 µM | OVCAR-8 > 100 µM | CAKI-1 > 100 µM | ACHN > 100 µM

CNC(=O)N(CCCC(NC(C)=O)C(=O)NCc1ccccc1)Cc1ccccc1 (stereo unspecified)
inactive: K562 > 100 µM | A498 > 100 µM | U-251 > 100 µM | CCRF-CEM > 100 µM | M14 > 100 µM | A549 > 100 µM | MOLT-4 > 100 µM | NCI-H226 > 100 µM | SNB-75 28.6 µM | LOX IMVI > 100 µM | SW-620 > 100 µM | TK-10 > 100 µM | SK-OV-3 > 100 µM | NCI-H460 > 100 µM | EKVX > 100 µM | OVCAR-8 > 100 µM | CAKI-1 > 100 µM | ACHN > 100 µM

C=C1CC2C(=O)N(c3ccccc3)C(=O)C2CC1n1[nH]c(=O)n(Cc2ccccc2)c1=O (stereo unspecified)
inactive: K562 > 100 µM | A498 > 100 µM | U-251 > 100 µM | CCRF-CEM > 100 µM | M14 > 100 µM | A549 > 100 µM | MOLT-4 > 100 µM | NCI-H226 > 100 µM | SNB-75 > 100 µM | LOX IMVI > 100 µM | SW-620 > 100 µM | TK-10 > 100 µM | SK-OV-3 > 100 µM | NCI-H460 > 100 µM | EKVX > 100 µM | OVCAR-8 > 100 µM | CAKI-1 > 100 µM | ACHN > 100 µM

O=S(=O)(N/N=C\c1c2ccccc2[n+]([O-])c2ccccc12)c1ccc(Cl)cc1
inactive: K562 48.2 µM | A498 > 100 µM | U-251 94.4 µM | CCRF-CEM > 100 µM | M14 > 100 µM | A549 > 100 µM | MOLT-4 58.6 µM | NCI-H226 30.3 µM | SNB-75 26.1 µM | LOX IMVI > 100 µM | SW-620 > 100 µM | TK-10 > 100 µM | SK-OV-3 > 100 µM | NCI-H460 > 100 µM | EKVX > 100 µM | OVCAR-8 > 100 µM | CAKI-1 > 100 µM | ACHN 35.6 µM

Cc1cc(=O)oc2c1cc(OCC(=O)OCCN1CCCCC1)c1occ(C)c12
inactive: K562 > 100 µM | A498 > 100 µM | U-251 > 100 µM | CCRF-CEM > 100 µM | M14 > 100 µM | A549 > 100 µM | MOLT-4 > 100 µM | NCI-H226 > 100 µM | SNB-75 > 100 µM | LOX IMVI > 100 µM | SW-620 > 100 µM | TK-10 > 100 µM | NCI-H460 > 100 µM | EKVX > 100 µM | OVCAR-8 > 100 µM | CAKI-1 > 100 µM | ACHN > 100 µM

O=C1C(Cl)=C(Cl)C(=O)N1c1ccc(Cl)c(Cl)c1Cl
inactive: K562 30.5 µM | A498 > 100 µM | U-251 > 100 µM | CCRF-CEM 21.7 µM | M14 52.7 µM | A549 > 100 µM | MOLT-4 32.6 µM | NCI-H226 > 100 µM | SNB-75 > 100 µM | LOX IMVI 69 µM | SW-620 35.5 µM | TK-10 > 100 µM | SK-OV-3 > 100 µM | NCI-H460 > 100 µM | EKVX 61.5 µM | CAKI-1 25.5 µM | ACHN 75 µM

Cc1ccc(S(=O)(=O)C(C#N)c2nc3ccccc3nc2N2CCOCC2)cc1 (stereo unspecified)
inactive: K562 > 10 µM | A498 53.7 µM | U-251 18.7 µM | CCRF-CEM 13.9 µM | M14 44.2 µM | A549 76 µM | MOLT-4 19.2 µM | NCI-H226 > 100 µM | SNB-75 22.8 µM | LOX IMVI 16.6 µM | SW-620 26.9 µM | TK-10 56.6 µM | SK-OV-3 61.5 µM | NCI-H460 17.9 µM | EKVX > 100 µM | OVCAR-8 > 10 µM | CAKI-1 25.6 µM | ACHN 30.3 µM

CC1(C)OC(C[C@]2(C#N)C[C@H](CCl)OC(C)(C)O2)C[C@@H](C[C@]2(C#N)C[C@H](CCl)OC(C)(C)O2)O1 (stereo partly specified)
inactive: K562 > 100 µM | A498 > 100 µM | U-251 > 100 µM | CCRF-CEM > 100 µM | M14 > 100 µM | A549 > 100 µM | MOLT-4 38.8 µM | NCI-H226 > 100 µM | SNB-75 > 100 µM | LOX IMVI > 100 µM | SW-620 > 100 µM | TK-10 > 100 µM | SK-OV-3 > 100 µM | NCI-H460 > 100 µM | EKVX > 100 µM | OVCAR-8 > 100 µM | CAKI-1 > 100 µM | ACHN > 100 µM

CC(=O)OC[C@@H](COC(=O)/C=C/c1ccc(O)cc1)OC1OC(CO)C(O)C(O)C1O (stereo partly specified)
inactive: K562 > 100 µM | A498 > 100 µM | U-251 > 100 µM | CCRF-CEM > 100 µM | M14 > 100 µM | A549 > 100 µM | MOLT-4 > 100 µM | NCI-H226 > 100 µM | SNB-75 > 100 µM | LOX IMVI > 100 µM | SW-620 > 100 µM | TK-10 > 100 µM | SK-OV-3 > 100 µM | NCI-H460 > 100 µM | EKVX > 100 µM | OVCAR-8 > 100 µM | CAKI-1 > 100 µM | ACHN > 100 µM

c1ccc([S+](c2ccccc2)c2ccc(Sc3ccc([S+](c4ccccc4)c4ccccc4)cc3)cc2)cc1
inactive: K562 1.17 µM | A498 44.4 µM | U-251 15.7 µM | CCRF-CEM 19.4 µM | M14 45.5 µM | A549 9.79 µM | MOLT-4 9.73 µM | NCI-H226 25.5 µM | SNB-75 19.2 µM | LOX IMVI 18.6 µM | SW-620 37.9 µM | TK-10 36.2 µM | SK-OV-3 21.9 µM | NCI-H460 29.6 µM | EKVX 73.6 µM | OVCAR-8 20.3 µM | CAKI-1 75.5 µM | ACHN 26.4 µM
